Results taken from paper PMC3871529, “At a Supra-Physiological Concentration, Human Sexual Hormones Act as Quorum-Sensing Inhibitors” (PLoS ONE, 2013).
Where two headings read alike, the source gives them in different places.

Columns and labels:
P. aeruginosa = experiment: Growth kinetics of P. aeruginosa in the presence of QSIs; assay type: cell-based, Pseudomonas aeruginosa; details: QSI at 0.5 mg/ml, OD600 and CFU at 8 and 18 hour
Procedure: (§1) Figure 5 QSIs modulated QS-signal accumulation in P. aeruginosa. Growth kinetics (n = 6) of P. aeruginosa was measured (OD600) in the presence of the QSIs (estradiol, estrone, estriol, hordenine and 4-NPO) at 0.5 mg/ml using DMSO as a negative control. Cell counts were assessed (CFU/ml) at 8- and 18-hour, and C4-HSL and OC12-HSL concentration (µM) were determined in the bacterial cultures at 18-hour. Statistically different values (Student's t test with α = 0.01) are noted by asterisks.
(§2) QS gene transcription in P. aeruginosa PAO1 was monitored using PAO1 strains carrying various gene promoters fused to a lacZ reporter gene, as described in Vandeputte et al., 2010 and Table 1. PAO1 reporter strains were prepared according to Vandeputte et al.. Briefly, 18-hours-old liquid cultures (50 µl) were diluted in order to obtain a starting OD600 nm comprised between 0.02 and 0.03 in fresh LB medium supplemented with 50 mM MOPS pH 7.0 (1 ml), carbenicillin (300 µg/ml) and 10 µl of the QSIs to be tested (OD were measured using a SpectraMax M2 device from Molecular Devices). Test and control QSIs were diluted in 100% DMSO (resulting after addition to the growth medium in a 1% final concentration of DMSO). Cultures were incubated for 18 hours at 37°C with agitation. After incubation, cell densities were assessed spectrophotometrically (OD600 nm) and β-galactosidase assays were performed using the substrate o-nitrophenyl-β-D-galactopyranoside as described previously, [29]. Promoterless-lacZ fusions were used as controls. AHLs were quantified as described in Vandeputte et al.. All tests were performed in quintuplicates and three biological repetitions. The statistical significance of each test was evaluated by conducting Student's t tests and two-way ANOVA combined with the Tukey post-analysis test using the GraphPad Prism software and p values≤0.01 were considered significant.

[1] = tested on: QS-signal accumulation in P. aeruginosa; experiment: AHL (C4-HSL, OC12-HSL) quantification in P. aeruginosa cultures by mass spectrometry; assay type: cell-based, Pseudomonas aeruginosa; details: QSI at 0.5 mg/ml, 18-hour
Procedure: as §1, §2

RhlR = molecular target: T1, RhlR (Pseudomonas aeruginosa, UniProt P54292); experiment: E. coli bioindicator expressing RhlR (pAL101, rhlI::luxCDABE luminescence); assay type: cell-based; details: C4-HSL 10 µM; QSIs at 0.1 mg/ml, naringenin and naringin at 0.5 mg/ml
T1 construct: expressed in transfected cells; host or cells: Escherichia coli JLD271 carrying pAL101 (pSB401-derivative, rhlR+ rhlI::luxCDABE)
Procedure: We determined whether the AHL-binding transcriptional factors LasR and RhlR were impaired in their capacity to activate expression of the QS-regulated genes in the presence of various QSIs. This was achieved by using two E. coli bioindicator strains expressing either LasR or RhlR proteins and harboring an appropriate reporter lux operon for measuring their transcriptional activity in the presence of OC12-HSL at 100 µM and C4-HSL at 10 µM, respectively. Adding C4-HSL to the pAL101-bioindicator or OC12-HSL to the pAL105-bioindicator induced the expression of the reporter lux operon and the consequent production of luminescence. In contrast, only background levels of luminescence were detected in control strains harboring the plasmids pAL102 or pAL106, which lacks the rhlR or lasR gene, respectively.
Figure 7 QSIs modulated activity of the AHL-sensors in P. aeruginosa. Luminescence of the reporting operon lux, expressed in relative light units (RLU/OD600), was measured in E. coli bioindicator strains harboring the LasR (A) and RhlR (B) AHL-sensing systems of P. aeruginosa in the presence of […]. The QSIs estradiol, estrone, estriol and hordenine were added at 0.1 mg/ml, while naringenin and naringin, added at 0.5 mg/ml, were used as QSI-reference and non-QSI reference, respectively. Each test (n = 6) was compared with the DMSO-condition using Student's t test. Asterisks indicate statistically different data (p value of ≤0.01).
Escherichia coli JLD271 biosensor strains harboring LasR- and RhlR-based plasmids pAL105 and pAL101 and control plasmids pAL106 (LasR^-) and pAL102 (RhlR^−) (Table 1) were prepared according to Vandeputte et al.. Briefly, these strains were grown in LB medium supplemented with tetracycline (10 µg/ml) and chloramphenicol (25 µg/ml) for 24 h. Then 50-µl portions of the cultures were subcultured in 1 ml of LB medium (the starting OD600 ranged between 0.02 and 0.025 corresponding to 5.10^6 CFU) supplemented with 10 µl of DMSO (1% [vol/vol] final), 10 µl of naringenin or naringin dissolved in DMSO (2 mM, final concentration), or 10 µl of the molecule to be tested. To induce the expression of the lux operon, 0, 1, 10 or […] of C4-HSL was added to pAL101 and pAL102, while OC12-HSL was added to pAL105 and pAL106. After incubation for 2 h at 37°C with agitation (175 rpm), 200 µl of culture was transferred to 96-well OptiPlate-96 F plates from Perkin-Elmer, and the luminescence of each sample was measured by using a TopCount NXT device from Perkin-Elmer. The LasR(pAL106) and RhlR(pAL102) biosensors were used for background subtraction, and the OD600 values were measured to account for the differences in cell density. All experiments were performed in six replicates. The statistical significance of each test was evaluated by conducting Student's t tests using the GraphPad Prism software, and p values ≤0.05 were considered significant. Naringenin (4′,5,7-trihydroxyflavanone), naringin (4′,5,7-trihydroxyflavanone 7-rhamnoglucoside), the AHLs OC12-HSL and C4-HSL were purchased from Sigma-Aldrich and dissolved freshly in 100% DMSO before use. Tested QSIs were dissolved in 100% DMSO before use.

[2] = tested on: Agrobacterium biosensor cells; experiment: Minimal bactericidal concentration (MBC); assay type: cell-based, Agrobacterium tumefaciens; details: 99.9% reduction of 10^5 CFU/ml after 36 h at 30°C
Procedure: Aside from the effect of QSI on QS regulation, the toxicity of these compounds was tested on bacterial cells by measuring two parameters: the minimal inhibitory concentration (MIC) and minimal bactericidal concentration (MBC). MIC, which is the lowest concentration of QSI (µg/ml) inhibiting any visible culture after 36 h of incubation at 30°C, was estimated by culturing 10^5 CFU/ml of the Agrobacterium biosensor cells in the presence of different concentrations of the QSI. MBC, which is the lowest concentration of QSI (µg/ml) that results in a 99.9% reduction of the initial bacterial population (10^5 CFU/ml) after 36 h of incubation at 30°C in the presence of different concentrations of QSI, was estimated by plating 100 µL of the Agrobacterium cultures on agar LBm plates. After an incubation of 48 h at 30°C, CFU were counted and the MBC values were calculated.

T1 sequence (P54292 whole entry): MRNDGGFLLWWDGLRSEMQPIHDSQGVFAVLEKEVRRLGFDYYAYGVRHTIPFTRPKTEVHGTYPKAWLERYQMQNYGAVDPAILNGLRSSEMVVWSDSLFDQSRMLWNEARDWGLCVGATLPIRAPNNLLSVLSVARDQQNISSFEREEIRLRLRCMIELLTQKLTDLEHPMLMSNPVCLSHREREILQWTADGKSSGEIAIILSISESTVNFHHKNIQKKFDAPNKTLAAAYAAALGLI

Molecule | effect on growth of P. aeruginosa (P. aeruginosa) | C4-HSL concentration in cell cultures [1] | OC12-HSL concentration in cell cultures [1] | effect on RhlR functionality (lux luminescence) (RhlR) | MBC [2] [µg/mL] | MBC ([2]; Agrobacterium, read-out: MBC) [µg/mL]
3-Hydroxy-13-methyl-6,7,8,9,11,12,13,14,15,17-decahydro-cyclopenta[a] phenanthren-16-one [Compound 729, reference compound] | did not affect the growth | reduction | reduction | significant impact | >100 | –
C[C@]12CC[C@@H]3c4ccc(O)cc4CC[C@H]3[C@@H]1C[C@@H](O)[C@@H]2O [Estriol, estriol] | did not affect the growth | reduction | reduction | significant impact | – | > 100
CN(C)CCc1ccc(O)cc1 [Compound 3499, hordenine] | slightly delayed the growth | reduction | reduction | significant impact | – | > 100
